Results as given in patent US20250296959A1, “B7-H3 TARGETING PEPTIDES AND CONSTRUCTS THEREOF” (Mariana Oncology Inc., priority 2024, published 2025).
Each block holds one molecule with its values, some of them ahead of it. Starred links: 1 amine or outer side, 2 acyl side, 3 side chain; linkers in the order of their positions; H or OH if unused. Positions of bridges follow the written chain, without caps; N, C: chain ends. Non-standard residues stand in square brackets, D forms with d. Residues, ends and D or L forms follow the SMILES beside them. Groups on a side chain read outwards from the residue. Primed or numbered codes have the meaning given here. *: point of attachment. Ala(1-CH2CO2H-4-piperidyl) = N[C@@H](CC1CCN(CC(=O)O)CC1)C(=O)O; Ala(piperidin-4-yl) = O=C([C@H](CC1CCN([*:3])CC1)N[*:1])[*:2]; DOTA = O=C(O)CN1CCN(CC(=O)O)CCN(CC(=O)*)CCN(CC(=O)O)CC1; PipAla = piperidinyl-alanine residue (as named); Phe(4-COOH) = N[C@@H](Cc1ccc(C(=O)O)cc1)C(=O)O; Trp(5-F) = N[C@@H](Cc1c[nH]c2ccc(F)cc12)C(=O)O; X1 = C[C@@H](c1ccccc1)[C@H](N[*:1])C(=O)[*:2]; PEG4′ = 4x 3-(2-aminoethoxy)propanoic acid; γGlu = O=C(O)[C@H](CCC(=O)[*:2])N[*:1]; 1Nal = N[C@@H](Cc1cccc2ccccc12)C(=O)O; Ala(4-THP) = N[C@@H](CC1CCOCC1)C(=O)O; Val(3-OH) = CC(C)(O)[C@H](N)C(=O)O; hCha = N[C@@H](CCC1CCCCC1)C(=O)O; 4Pal = N[C@@H](Cc1ccncc1)C(=O)O; PEG4 = NCCOCCOCCOCCOCCC(=O)O; Tle = CC(C)(C)[C@H](N)C(=O)O; hLeu = CC(C)CC[C@H](N)C(=O)O; Nle = CCCC[C@H](N)C(=O)O; PEG8′ = not defined here

Assays:
Calu-6 cell line [1] = assay: Cell associated (bound) fraction of [177Lu]Lu-labeled peptide in Calu-6 cells; type: cell-based, Human; details: 1 hour, 37° C.
How it was run: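 Detached B7-H3-expressing human lung cancer cells at 5 million/mL were exposed for 1 hour at 37 °C to 0.8 μCi of the 177Lu-labelled peptide, which was formulated in 1% PBSA after labelling at 80 °C, pH ~5. Supernatant and two cold washes counted as unbound, and resuspended cells gamma-counted as the cell-associated fraction.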

2Ig B7-H3 = target: T1, 2Ig B7-H3 (Homo sapiens, UniProt Q5ZPR3); assay: SPR binding affinity to 2Ig B7-H3
T1 sequence (Q5ZPR3 29-316 isoform Q5ZPR3-2 limits assumed): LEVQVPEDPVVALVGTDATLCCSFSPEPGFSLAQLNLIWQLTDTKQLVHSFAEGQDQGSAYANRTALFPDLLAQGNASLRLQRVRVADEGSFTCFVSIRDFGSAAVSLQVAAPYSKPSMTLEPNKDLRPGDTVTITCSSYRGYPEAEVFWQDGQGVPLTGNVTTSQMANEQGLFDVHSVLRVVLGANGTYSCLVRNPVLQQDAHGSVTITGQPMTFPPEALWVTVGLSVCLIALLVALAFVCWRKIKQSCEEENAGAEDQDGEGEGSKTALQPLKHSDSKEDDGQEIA

Calu-6 cell line [2] = assay: Net internalization of [177Lu]Lu-labeled peptide in Calu-6 cells; type: cell-based, Human; details: 1 hour, 37° C., glycine pH 2.5 acid wash
How it was run: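 Calu-6 cells, human non-engineered lung cancer expressing B7-H3, resuspended in 1% PBSA at 5 million cells/mL and incubated with the 177Lu-labeled conjugate (labeled at 80 °C, pH ~5, RP-HPLC checked). Gamma counting of the bound fraction, then of the pellet after two glycine pH 2.5 acid strips and NaOH lysis, gives internalized activity.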

Calu-6 tumors = assay: Ex vivo biodistribution of radiolabeled peptides in nude mice bearing Calu-6 tumors; details: [177Lu]Lu labeling, 24 h post-injection
Protocol: Mice were euthanized at pre-determined time points and selected tissues were resected and collected into pre-weighed tubes. The tubes were then reweighed post resection, the difference giving the weight of each tissue. Radioactivity in each tissue was measured using a gamma counter. Counts were decay corrected to the time of injection and percentage of injected activity per gram (% IA/g) was calculated for each tissue based on the injected activity into each individual mouse. Injected activity was converted to counts based on the sensitivity of the gamma counter. The counts in tissue were then converted to the percentage of injected activity and this was divided by the mass of tissue to give % IA/g.

human 4lg B7-H3 = target: T2, human 4lg B7-H3 (Homo sapiens, UniProt Q5ZPR3); assay: Affinity determination by surface plasmon resonance (SPR) to 4Ig B7-H3
T2 sequence (Q5ZPR3 29-534): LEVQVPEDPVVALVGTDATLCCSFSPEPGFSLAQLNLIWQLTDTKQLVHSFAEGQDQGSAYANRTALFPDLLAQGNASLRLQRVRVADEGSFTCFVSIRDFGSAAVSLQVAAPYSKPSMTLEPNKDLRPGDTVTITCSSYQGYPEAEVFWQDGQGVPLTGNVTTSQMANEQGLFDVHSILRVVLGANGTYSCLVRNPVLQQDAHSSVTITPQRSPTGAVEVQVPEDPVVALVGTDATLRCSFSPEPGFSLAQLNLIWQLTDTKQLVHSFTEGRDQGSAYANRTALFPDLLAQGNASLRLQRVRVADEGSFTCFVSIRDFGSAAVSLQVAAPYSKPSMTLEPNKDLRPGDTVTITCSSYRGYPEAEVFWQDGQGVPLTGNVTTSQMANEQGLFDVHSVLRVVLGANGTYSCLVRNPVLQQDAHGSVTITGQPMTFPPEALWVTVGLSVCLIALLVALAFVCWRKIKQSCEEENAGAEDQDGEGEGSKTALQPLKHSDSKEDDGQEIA

[3] = target: Biotinylated human 4Ig B7-H3 (human) (UniProt Q5ZPR3); assay: SPR 37C; A = KD<=1.0 nM
B7-H3 on Calu-6 cells = target: T3, B7-H3 on Calu-6 cells (human, UniProt Q5ZPR3 29-534); assay: 177Lu-labelled peptide on Calu-6 cells, % cell associated fraction; B = 25<%<=50
T3 construct: whole, on cells
T3 sequence (looked up): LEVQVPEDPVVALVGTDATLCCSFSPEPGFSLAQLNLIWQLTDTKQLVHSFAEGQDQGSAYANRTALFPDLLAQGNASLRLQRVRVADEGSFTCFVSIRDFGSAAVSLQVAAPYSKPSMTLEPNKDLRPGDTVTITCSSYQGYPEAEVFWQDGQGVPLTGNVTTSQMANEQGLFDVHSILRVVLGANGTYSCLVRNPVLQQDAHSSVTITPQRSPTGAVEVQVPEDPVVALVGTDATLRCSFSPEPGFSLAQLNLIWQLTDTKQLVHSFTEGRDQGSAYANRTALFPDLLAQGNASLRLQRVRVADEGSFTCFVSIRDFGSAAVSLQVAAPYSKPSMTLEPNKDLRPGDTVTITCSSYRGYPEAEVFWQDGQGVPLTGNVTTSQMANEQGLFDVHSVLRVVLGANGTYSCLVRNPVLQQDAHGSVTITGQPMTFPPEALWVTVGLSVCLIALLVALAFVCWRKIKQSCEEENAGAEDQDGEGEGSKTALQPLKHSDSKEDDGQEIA

[4] = target: T4, Biotinylated human 4Ig B7-H3 (human, UniProt Q5ZPR3 29-461, limits assumed, biotinylated (site not stated)); assay: SPR 37C; C = 10<KD<=100 nM
T4 construct: Protein captured on the SA chip for SPR; also called 4lg-B7-H3; B7-H3 isoform 4Ig
T4 sequence: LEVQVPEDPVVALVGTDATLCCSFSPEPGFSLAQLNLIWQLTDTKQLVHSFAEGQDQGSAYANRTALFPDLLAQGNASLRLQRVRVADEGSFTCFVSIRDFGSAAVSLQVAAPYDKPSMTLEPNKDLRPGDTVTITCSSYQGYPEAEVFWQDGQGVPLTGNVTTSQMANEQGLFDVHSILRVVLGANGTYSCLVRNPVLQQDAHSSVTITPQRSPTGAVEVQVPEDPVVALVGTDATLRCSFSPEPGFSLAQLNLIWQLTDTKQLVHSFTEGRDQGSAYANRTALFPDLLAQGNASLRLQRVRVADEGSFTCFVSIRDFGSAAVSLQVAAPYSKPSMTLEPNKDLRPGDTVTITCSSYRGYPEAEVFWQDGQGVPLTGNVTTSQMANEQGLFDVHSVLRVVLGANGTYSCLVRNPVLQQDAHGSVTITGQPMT

Molecule: CC(=O)N[C@@H](CCC(C)C)C(=O)N[C@@H](Cc1ccc(O)cc1)C(=O)N[C@H]1CSSC[C@@H](C(=O)N[C@@H](Cc2c[nH]c3ccc(F)cc23)C(=O)N[C@H](C(=O)N[C@H](C(=O)N[C@H](CCC(=O)O)C(N)=O)C(C)(C)O)[C@@H](C)c2ccccc2)NC(=O)[C@H](Cc2ccc(O)cc2)NC(=O)[C@H](C(C)C)NC(=O)[C@H](CC(=O)O)NC(=O)[C@H](CC2CCN(C(=O)CCOCCOCCOCCOCCNC(=O)CN3CCN(CC(=O)O)CCN(CC(=O)O)CCN(CC(=O)O)CC3)CC2)NC(=O)[C@H](CC2CCN(CC(=O)O)CC2)NC(=O)CNC(=O)[C@H](C(C)(C)C)NC1=O [compound 496, Ac-hLeu-Y-C-Tbg-G-Pip(CH2COOH)Ala-Pip(PEG4-DOTA)Ala-D-V-Y-C-5FW-[(2S, 3S)beta-Me-Phe]-hydroxyVal-dGlu-CONH2] (Ac-[hLeu]YC[Tle]G[Ala(1-CH2CO2H-4-piperidyl)][Ala(piperidin-4-yl)]([PEG4-DOTA])DVYC[Trp(5-F)][X1][Val(3-OH)][dE]-NH2; disulfide 3-11)
% cell associated fraction (Calu-6 cell line [1]): B (25<%≤50) | Kd (2Ig B7-H3): 526 nM | % net internalization (Calu-6 cell line [2]): A (%≤25) | kidney uptake (% IA/g) (Calu-6 tumors): C (0 < % IA/g ≤ 10 in kidney) | tumor uptake (% IA/g) (Calu-6 tumors): A (0 < % IA/g ≤ 5 in tumor) | Kd (human 4lg B7-H3): < 1 nM

Molecule: CC(=O)N[C@@H](CCC(C)C)C(=O)N[C@@H](Cc1ccc(O)cc1)C(=O)N[C@H]1CSSC[C@@H](C(=O)N[C@@H](Cc2c[nH]c3ccc(F)cc23)C(=O)N[C@H](C(=O)N[C@H](C(=O)N[C@H](C)C(=O)O)C(C)(C)O)[C@@H](C)c2ccccc2)NC(=O)[C@H](Cc2ccc(O)cc2)NC(=O)[C@H](C(C)C)NC(=O)[C@H](CC(=O)O)NC(=O)[C@H](CC2CCN(C(=O)CCOCCOCCOCCOCCNC(=O)CN3CCN(CC(=O)O)CCN(CC(=O)O)CCN(CC(=O)O)CC3)CC2)NC(=O)[C@H](CC2CCN(CC(=O)O)CC2)NC(=O)CNC(=O)[C@H](C(C)(C)C)NC1=O [compound 526, Ac-hLeu-Y-C-Tbg-G-Pip(CH2COOH)Ala-Pip(PEG4-DOTA)Ala-D-V-Y-C-5FW-[(2S, 3S)beta-Me-Phe]-hydroxyVal-dAla-COOH] (Ac-[hLeu]YC[Tle]G[Ala(1-CH2CO2H-4-piperidyl)][Ala(piperidin-4-yl)]([PEG4-DOTA])DVYC[Trp(5-F)][X1][Val(3-OH)][dA]-OH; disulfide 3-11)
Kd (2Ig B7-H3): 380 nM | kidney uptake (% IA/g) (Calu-6 tumors): D (% IA/g > 10 in kidney) | tumor uptake (% IA/g) (Calu-6 tumors): A (0 < % IA/g ≤ 5 in tumor) | Kd (human 4lg B7-H3): < 1 nM

B1: Cpd 29 (peptide)
peptide: Ac-[Nle]YCVGKYDVYCWFE[dK](DOTA)-NH2
modifications: disulfide 3-11
SMILES: CCCC[C@H](NC(C)=O)C(=O)N[C@@H](Cc1ccc(O)cc1)C(=O)N[C@H]1CSSC[C@@H](C(=O)N[C@@H](Cc2c[nH]c3ccccc23)C(=O)N[C@@H](Cc2ccccc2)C(=O)N[C@@H](CCC(=O)O)C(=O)N[C@H](CCCCNC(=O)CN2CCN(CC(=O)O)CCN(CC(=O)O)CCN(CC(=O)O)CC2)C(N)=O)NC(=O)[C@H](Cc2ccc(O)cc2)NC(=O)[C@H](C(C)C)NC(=O)[C@H](CC(=O)O)NC(=O)[C@H](Cc2ccc(O)cc2)NC(=O)[C@H](CCCCN)NC(=O)CNC(=O)[C@H](C(C)C)NC1=O
KD [4]: 10 to 100 nM

Molecule: {DOTA-PEG8′}-[Nle]YCVGKYDVYCWF-NH2 (disulfide 3-11) [Cpd 5]
KD [4]: 10 to 100 nM

The next lines start with the values.

KD [3]: < 1 nM
Molecule: Ac-[hCha]YC[Tle]G[PipAla]([PEG4′-DOTA])[Ala(4-THP)]DVYC[Trp(5-F)]F[Val(3-OH)][dA]-OH (disulfide 3-11 (inferred)) [Cpd 485]

% cell associated fraction (B7-H3 on Calu-6 cells): 25 to 50%
Molecule: Ac-[hLeu]YCIGK(DOTA)[Ala(piperidin-4-yl)]DVYC[Trp(5-F)]F[Val(3-OH)]-NH2 (disulfide 3-11) [Cpd 203]

% cell associated fraction (B7-H3 on Calu-6 cells): 25 to 50%
Molecule: Ac-[hLeu]YCIGK(DOTA)[4Pal]DVYC[Trp(5-F)]F[Val(3-OH)]-NH2 (disulfide 3-11) [Cpd 230]

KD [4]: 10 to 100 nM
Molecule: Ac-[Nle]YCVGKYDVYCWFT-OH (disulfide 3-11) [Cpd 33]

KD [3]: < 1 nM
Molecule: Ac-[hLeu]YC[Tle]G[Ala(piperidin-4-yl)][Phe(4-COOH)]DVYC[1Nal]FP[dK](DOTA)-NH2 (disulfide 3-11 (inferred)) [Cpd 314]

% cell associated fraction (B7-H3 on Calu-6 cells): 25 to 50%
Molecule: Ac-[hLeu]YC[Tle]GK([γGlu-DOTA])[4Pal]DVYC[1Nal]FP-NH2 (disulfide 3-11) [Cpd 252]
